How the values were obtained:
SAN cells = assay: Spontaneous APs / pacing rate of isolated SAN cells from WT mice (patch clamp); format: cell-based, mouse; conditions: 50 nM isoproterenol
Experimental: (§1) WT and CASQ2 D307H KI mice were anesthetized with isofluorane and sacrificed by cervical dislocation. The heart was rapidly removed and transferred into Tyrode solution containing heparin. […] The area was cleaned, cut into small strips and washed into a Low Calcium Solution, containing (in mM): 140 NaCl, 5.4 KCl, 0.5 MgCl2, 1.2 KH2PO4, 5 HEPES-NaOH, 50 taurine, 5.5 glucose (pH 6.9). The osmolarity was adjusted if needed to 315 mOsm.
The same solution, supplemented with 1 mg/ml albumin, 200 μM CaCl2, collagenase Type I (Worthington) or liberase TH (Roche), protease (Sigma) and elastase (Sigma) was used for enzymatic digestion as previously described [See, Mesirca, P., et al. Nat Commun 5, 4664 (2014)]. In this step, the tissue was gently resuspended with a polished Pasteur pipette in this solution for 9-13 minutes at 37° C. SAN samples were then washed three times in a modified “Kraftbrühe” solution, containing (in mM): 70 glutamic acid, 80 KOH, 20 KCl, 10 γ-Hydroxybutyric acid sodium salt, 10 KH2PO4, 10 HEPES-KOH, 10 taurine, 1 mg/ml albumin, 0.1 EGTA-KOH (pH 7.2). The same solution was used to re-suspend the single cells with a pipet by vigorous up and down, between 3 to 5 minutes at 37° C. Cells were then gradually exposed to increasing concentrations of calcium, following a “Ca^2+ readaptation” protocol [Mesirca et al., 2014, supra]. Experiments were performed the same day at 33° C.
(§2) In all experiments, the coverslips were perfused at 33° C. with an external solution containing (in mM): 140 NaCl, 4 KCl, 11 Glucose, 1.2 MgCl2, 1.8 CaCl2, 5.5 HEPES titrated to pH 7.4 with NaOH and adjusted at 320 mOsm with sucrose.
The spontaneous automaticity of isolated SAN cells was recorded under perforated-patch conditions by adding 30 μM β-escin49 to the intracellular solution containing (in mM): 130 KCl, 10 NaCl, 10 HEPES, 0.2 EGTA-KOH, 2 MgATP, 6.6 Phosphocreatine, 0.05 cAMP and 1 μM free Ca^2+ (pH 7.2). To record SK4 K+ current, a voltage ramp protocol was applied. SAN and hiPS-CMs were held at −40 mV and −20 mV, respectively to substantially inactivate voltage-gated Na^+ and Ca^2+ currents. Cells were stepped from −90 mV to +60 mV for 150 ms. Then, a cocktail (solution 1) containing (in mM) 0.3 cadmium, 0.025 ZD-7288 and 0.01 E-4031 was applied extracellularly to inhibit residual L-type and T-type voltage-gated Ca2+ currents, If and the IKr currents, respectively. […] For voltage-clamp recording of SAN cells, the intracellular solution was the same to that described above for recording spontaneous automaticity.
The spontaneous electric activity of the cell was recorded in the current clamp configuration of the patch clamp technique before (black trace) and during (violet trace) exposure to 2 μM clotrimazole.
FIG. 5E (Left) presents representative traces of spontaneous APs recorded in single SAN cell from WT mice.

[1] = test system: SAN cells from CASQ2-D307H KI mice; assay: Spontaneous APs and DADs of isolated SAN cells from CASQ2 D307H KI mice; format: cell-based, mouse; conditions: 50 nM isoproterenol, after 1-2 minutes
Experimental: as §1
The same solution, supplemented with 1 mg/ml albumin, 200 μM CaCl2, collagenase Type I (Worthington) or liberase TH (Roche), protease (Sigma) and elastase (Sigma) was used for enzymatic digestion as previously described [See, Mesirca, P., et al. Nat Commun 5, 4664 (2014)]. In this step, the tissue was gently resuspended with a polished Pasteur pipette in this solution for 9-13 minutes at 37° C. SAN samples were then washed three times in a modified “Kraftbrühe” solution, containing (in mM): 70 glutamic acid, 80 KOH, 20 KCl, 10 γ-Hydroxybutyric acid sodium salt, 10 KH2PO4, 10 HEPES-KOH, 10 taurine, 1 mg/ml albumin, 0.1 EGTA-KOH (pH 7.2). […] Cells were then gradually exposed to increasing concentrations of calcium, following a “Ca^2+ readaptation” protocol [Mesirca et al., 2014, supra]. […]
FIG. 5F (Left) presents representative traces of spontaneous APs recorded in single SAN cell from CASQ2 D307H KI mice. […]

normal hiPSC-CMs = assay: Spontaneous APs in hiPS-CMs derived from normal individuals; format: cell-based, human; conditions: 3 μM isoproterenol
Experimental: as §2
FIG. 4E (Left) presents representative traces of spontaneous APs recorded in hiPS-CM derived from a normal individual. […] FIG. 4E (Right) are bar graphs presenting data summary of pacing rate (normalized to Ctrl; one-way ANOVA **P=0.0071, n=14), DD slope (paired t-test, ***P<0.0001, n=14) and APD50 (one-way ANOVA *P=0.0243, n=18).

CPVT2 hiPSC-CMs = assay: Spontaneous APs and DADs in hiPS-CMs derived from CPVT2 (CASQ2 D307H) patients; format: cell-based, human; conditions: 3 μM isoproterenol
Experimental: as §2
FIG. 4F (Left) presents representative traces of spontaneous APs recorded in hiPS-CM derived from a CPVT2 (CASQ2 D307H) patients. From a regular pacing (black trace), DADs appeared when the cell was exposed to 3 μM isoproterenol (red trace, arrows). […] The suppression of cell 540 automaticity was reversible upon washout (blue trace). FIG. 4F (Right) present bar graphs showing data summary of pacing rate (n=17), on APD50 (n=17) and DADs (Normalized to Ctrl; one-way ANOVA***P=0.0001, n=15).

[2] = test system: intact SAN tissue preparations from WT mice; assay: Spontaneous calcium transients ex vivo in intact SAN tissue from WT mice (Fluo-4 AM); format: cell-based, mouse; conditions: 100 nM isoproterenol
Experimental: (§3) SAN tissue preparations were dissected ex vivo from WT and CASQ2-D307H KI mice as described in Torrente, A. G., et al. Proc Natl Acad Sci USA 112, 9769-9774 (2015). The dissected whole SAN tissue was pinned on a hand-made chamber and was incubated in a Tyrode solution containing 10 μM Fluo-4 AM (Thermo Fisher Scientific) and pluronic acid for 1 hour at 37° C. in the dark. The SAN tissue was washed in Tyrode at 37° C. in the dark for 10 minutes before experiments. Fluorescence of calcium transients was recorded using a photomultiplier (PTi D-104) at 35° C. and the analog signals were digitized using Digidata 1440 (Molecular Devices) and analyzed with pCLAMP 10.5 software.
(§4) To investigate the spontaneous calcium transients of the SAN, intact SAN tissue preparations dissected ex vivo from WT and CASQ2-D307H KI mice were exposed to Fluo-4 AM as previously described [Torrente, A. G., et al. Proc Natl Acad Sci USA 112, 9769-9774 (2015)].
FIG. 6A (Left) presents representative traces of spontaneous calcium transients recorded ex vivo in intact SAN tissue preparations from WT mice. […] Right: data summary of calcium transient rate (one-way-ANOVA***P=0.0003; n=12).

[3] = test system: intact SAN from CASQ2 D307H KI mice; assay: Spontaneous calcium transients ex vivo in intact SAN tissue from CASQ2-D307H KI mice (Fluo-4 AM); format: cell-based, mouse; conditions: 100 nM isoproterenol
Experimental: as §3, §4
FIG. 6B presents representative traces of different types of calcium transient abnormalities recorded in intact SAN from CASQ2 D307H KI mice, termed as “local Ca^2+ release” (upper left), “double humped transients” (upper right), “large-stored released Ca^2+ waves” (lower left) and “calcium alternans” (lower right).
FIG. 6C presents representative trace of spontaneous calcium transients recorded from intact SAN of CASQ2 D307H KI. The baseline rate of calcium transients (control, black trace) yielded chaotic calcium transients (red trace) following incubation of the SAN with 100 nM isoproterenol.

In the case of `CC(C)NCC(O)c1ccc(O)c(O)c1` (centres unmarked) [Isoproterenol], the “pacing of SAN cells” value (SAN cells) is reported as “significantly increased the pacing”, the DADs [1] is reported as “led to DADs” and the APD50 (normal hiPSC-CMs) is reported as “reduced their APD50”. For the same compound, the firing rate (normal hiPSC-CMs) was “significantly increased their firing rate”, the DADs (CPVT2 hiPSC-CMs) was “triggered DADs” and the chronotropic effect (CPVT2 hiPSC-CMs) was “did not produce positive chronotropic effect”. For the same compound, the “rate of calcium transients” value [2] was “significantly increased” and the “Ca2+ transient abnormalities” value [3] was “produced various Ca^2+ transient abnormalities”.

Reference: patent publication US11166940B2, “Treatment of cardiac disorders by blocking SK4 potassium channel” (Ramot at Tel-Aviv University Ltd., priority 2016, dated 2021)
